Reference: patent US10493159B2, “Protein transduction domains mimics” (University of Massachusetts, priority 2010, dated 2019)

Assay: Transport activity, carboxyfluorescein release from vesicles, Hill analysis
Conditions: EYPC⊃CF vesicles, no counterion activator
Description: Transport activities for these novel PTDMs were determined using the standard biophysical assay well documented in the CPP literature. (Hennig, et al. 2008 J. Am. Chem. Soc. 130, 10338.) Specifically, 5(6)-carboxyfluorescein (CF) was used as a fluorescent probe in egg yolk phosphatidylcholine large unilamellar vesicles (EYPC-LUVs). The activity of these transporters increased with increasing polymer concentration at a constant vesicle concentration as detected by CF emission intensity, yielding plots of fluorescence intensity versus polymer concentration (FIG. 42, FIG. 43). […] (Sakai, et al. 2003 J. Am. Chem. Soc. 125, 14348; Sakai, et al. 2006 Soft Matter 2, 636; Sakai, et al. 2005 Chembiochem 6, 114; Hennig, et al. 2008 J. Am. Chem. Soc. 130, 10338; Nishihara, et al. 2005 Org. Biomol. Chem., 3, 1659; Perret, et al. 2005 J. Am. Chem. Soc. 127, 1114.) This analysis gave Ymax (maximal CF release relative to complete release by Triton X-100), EC50 (effective polymer concentration needed to reach Ymax/2), and the Hill coefficient n (see Table 2).
Preparation of EYPC-LUVs⊃CF. […]
Polymer Activity in EYPC-LUVs⊃CF. […] The time-dependent change in fluorescence intensity It (λex=492 nm, λem=517 nm) was monitored during the addition of polymer (20 μL stock solution in DMSO) at t=100 s, and addition of 40 μl 1.2% (aq.) triton X-100 at the end of every experiment (t=900 s) (FIG. 42). […]

With polyarginine the “transport activity” value was “inactive”.
